According to US20210128675A1, “LHRH-PACLITAXEL CONJUGATES AND METHODS OF USE” (priority 2019, published 2021):
“Also recorded” adds a separate entry of the source.

Tests used:
[1] = test system: knocked down LHRH receptors of breast cancer cells; assay: alamar blue reduction after siRNA knockdown of LHRH receptors; format: cell-based, human; conditions: cells treated with siRNAs; 5 μM; 24, 48 and 72 hours
[2] = test system: MDA-MB-231 human triple negative breast cancer cells xenograft; assay: subcutaneous xenograft tumor shrinkage study; format: in vivo, Athymic Nude-Foxn1nu strain mice; conditions: for tumor volume, 21-day group: after about two weeks, mean volume before treatment 98 mm^3; for xenograft tumor size, 28-day group: two weeks of drug administration, mean volume before treatment 230 mm^3; for tumor outcome, early stage (day 14 group): 10 mg/kg
Method: In this section, cell culture, tumor induction and drug injection studies were carried out. First, 20 μl of 1×10^6 MDA-MB-231 human triple negative cancer cells were cultured in T75 tissue culture flasks (CELLTREAT, Pepperell, Mass., USA). This was carried out at 37° C. until 70% confluence was reached. The cells were grown under normal atmospheric pressure levels in a “L15′ medium” that is typically made up of: L-15 medium (ATCC, Manassas, Va., USA), supplemented with 100 I.U./ml penicillin/100 µg/ml streptomycin and 10% FBS (ATCC, Manassas, Va., USA).
Forty 4-weekold Athymic Nude-FoxnInu strain mice with individual weights of ˜17 g each was purchase from Envigo (Somerset, N.J., USA). These animals were approved for use in the current work by the University of Massachusetts Medical School Institutional Animal Care and Use Committee (UMMS IACUC) with docket #A2630-17. All of the animals were maintained and used according to the approved UMMS IACUC procedure and guideline.
Subcutaneous tumor xenografts were induced by the injection of 5.0×10^6 of MDA-MB-231 human triple negative breast cancer cells (suspended in sterile saline) into the interscapular region (for a better angiogenic response). Tumor formation was carefully assessed by palpation. Tumor growth was then monitored daily with the digital calipers. The tumor volume was calculated using the following modified ellipsoidal formula: […]
where length was the longest axis of the tumor and width is the measurement at a right angle to the length.
The mice were randomly chosen in groups of three (for each drugs injection) into their respective treatment groups. These include groups of mice with early stage (14 days after tumor induction), mid stage (21 days after tumor induction) and late stage (28 days after tumor induction) tumors. The weights of the mice and their tumor sizes were monitored and measured (using digital calipers) on a daily basis. These precise volumes and measured weights of the mice were used to guide the administration of the drugs. They were also used to monitor toxicity and side effects associated with the drugs. For each of the study groups, 3 mice each were randomly assigned to injection of 10 mg/kg of the specific drug configuration (PTX, [D-Lys6]LHRH-conjugated PTX and DMSO).
Different groups of mice were injected intravenously with each drug through their tail veins. This was done after tumor growth for 14, 21 and 28 days. The mice were injected with 10 mg/kg per week, during the two-week periods in which the effects of drugs were investigated. Following each drug administration, the tumor sizes were monitored with calipers on a daily basis (every 24 hours). In this way, the possible tumor shrinkage, growth or elimination, were monitored on a daily basis. Furthermore, the health status of the mice was monitored on a daily basis. This was done by monitoring the mice for signs of weight loss or altered motor ability in their cages. At the end of study, the mice were euthanized, following the approved IACUC guidelines and procedures. Thereafter, tumor tissues were excised from all of the mice, including tissues from their major organs (kidneys, spleen, liver and lungs).

[3] = test system: MDA-MB-231 cells; assay: confocal fluorescence imaging of cellular uptake and cytotoxicity; format: cell-based, human; conditions: 30 μM, 6 hours
[4] = histopathological and toxicity studies; conditions: 10 mg/kg weekly for two weeks; for qualitative toxicity (mortality, body weight, clinical signs): tumor-bearing mice
Method: Double doses of 10 mg/kg of PTX and PTX-[D-Lys6]LHRH were then administered (on a weekly basis for two weeks) to female athymic nude mice that were subcutaneously-induced with TNBC. In this way, qualitative toxicity was studied by considering differences in mortality, changes in body weight, clinical signs, gross observations and the histopathology of the lungs, kidneys and the liver at different stages of tumor development. This was done for the different drugs and cancer treatment durations. Daily observations and weight measurements were also used to check for possible animal reactions to the drugs, physiological changes, weight loss/gain, and the general well-being of the mice.
Hematoxylin and eosin (H and E) staining was also carried out. This was used for the identification of tumor necrosis and the examination of histologic changes that occurred in vital organs, following the administration of the drugs. Briefly, formalin-fixed, paraffin-embedded tissue/organs (tumor, kidneys, liver and lungs) samples (5 m) were injected with PTX, [D-Lys6]LHRH-conjugated PTX drugs and DMSO. These were hydrated by passing them through decreasing concentrations (100, 90 &70%) of alcohol baths and water.
The hydrated tissue sections were then stained in hematoxylin solution for 5 mins. This was followed by rinsing with tap water for 3 minutes and differentiation in 1% acid alcohol for 5 minutes. Tap water was then used to rinse (three times) before dipping the sections in ammonia water for 2 minutes. This was followed by staining with eosin for 10 mins. The treated sliced samples were dehydrated in solution with increasing concentrations of alcohols followed by xylene. Finally, a few drops of Permount Mounting Medium were used to mount the resulting samples. The stained slides were then imaged with a 20× objective lens using a TS100F Nikon microscope (Nikon Instruments Inc., Melville, N.Y., USA) coupled with a DS-Fi3 C camera.

[5] = test system: MDA MB 231 cells; assay: alamar blue cell viability and cytotoxicity assay; format: cell-based, human
Method: The alamar blue cell viability and cytotoxicity assay was used to study the MDA MB 231 cells lines in the log phase of growth. MDA MB 231 cells were harvested with trypsin-EDTA in the presence of Dulbecco Phosphate Buffer (DPBS). 10^4 cells/well were then seeded in 12-well plates in L15+ medium (L15 medium with cell medium supplement of FBS and penicillin/streptomycin). After a 3-hour attachment period (of the cells), respective concentrations of 15 μM, 25 μM and 30 μM of paclitaxel, LRH-conjugated paclitaxel (of Example 1) and DMSO (in culture medium) were added to the 12-well plates consisting of 10^4 cells. Cell viability was monitored using the alamar blue cell viability and cytotoxicity reagent (Thermo Fisher Scientific, Waltham, Mass., USA) at times of 0 h, 18 h, 24 h, 48 h and 72 h, following drug addition. At each time point, the culture medium was replaced with 1 ml of 10% alamar blue solution (in culture medium). The 12-well plates were then incubated at 37° C. for different durations. After each time point, 100 µl of the solution incubated with alamar blue solution (ABS) was transferred into triplicate wells of a black opaque 96-well plate (Thermo Fisher Scientific, Waltham, Mass., USA).
The fluorescence intensities of the cell medium supernatant incubated with ABS were measured at 544 nm excitation and 590 nm emission using a 1420 Victor3 multi-label plate reader (Perkin Elmer, Waltham, Mass., USA). The percentage of alamar blue reduction, the percentage difference in cell population between the treated and untreated cells, and the percentage of cell growth inhibition, were determined using a combination of the ABS and cell viability studies. […]
where, FIsample=fluorescence intensity of the (treated or untreated) cells, FI10% AB=fluorescence intensity of 10% alamar blue reagent (negative control) and FI10% R=fluorescence intensity of 100% reduced alamar blue (positive control).
FItreated=fluorescence intensity of treated cells and FIcells=fluorescence intensity of untreated cells

[6] = test system: triple negative breast tumor; assay: drug-tissue adhesion study (drug-coated AFM tip); format: binding, mice
Method: In an effort to understand the specificity in the targeting of triple negative breast cancer via the receptors that are over-expressed on the tumor, adhesion measurements were carried out on the control xenograft tissue samples at different stages of tumor development. Adhesion forces and interactions (between the different drug molecules and receptors on the surfaces of the tumor tissues at different stages of development) were explored in an effort to understand the interactions of the drugs with the tumor and non-tumor tissue.
Antigen retrieval was carried out on the fixed tissue. This involved exposing target antigens to receptors on a […] thick microtome tissue slice. These sliced tissues were prepared for adhesion measurements in an Asylum MFP3D-Bio Atomic Force Microscope (AFM) (Asylum Research, Oxford Instrument, CA, USA). The AFM tips RESP-20 AFM tip (Bruker Santa Barbara, Calif., USA) were dip-coated with paclitaxel or [D-Lys6]LHRH-conjugated paclitaxel using the techniques described in Obayemi et al. (J. Mech. Behav. Biomed. Mater., 68 (2017), pp. 276-286).
A simple AFM tip dip-coating technique (J. D. Obayemi et al. Materials Science and Engineering C. 66, (2016), 51-65, Hampp, E. et al. Res. 27 (22), 2891, Hutter, J. L. et al. Instrum. 64, 1868) (of the drugs) was used to coat the AFM tips at room-temperature (˜23° C.). In addition, a positive control of LHRH peptides was coated onto the AFM tips and used to determine the adhesion forces between the receptors on breast cancer tissue. All of the coated AFM tips were air-dried for about 6 h and kept in a desiccator overnight before the adhesion measurements.
The spring constants of the coated and uncoated AFM tips were measured experimentally using the thermal tune method (J.D. Obayemi, et al. Mater., 68 (2017), 276-286). This was done to obtain the actual spring constants that were used to calculate the pull-off forces from Hooke's law. The adhesion interactions were measured for the following configurations of coatings on the AFM tips and breast cancer tumor at different stages on the mice: […]

[7] = 10 mg/kg per week IV, two weeks

Compound: CC(=O)O[C@H]1C(=O)[C@@]2(C)[C@H]([C@H](OC(=O)c3ccccc3)[C@]3(O)C[C@H](OC(=O)[C@H](O)[C@@H](NC(=O)c4ccccc4)c4ccccc4)C(C)=C1C3(C)C)[C@]1(OC(C)=O)CO[C@@H]1C[C@@H]2O [PTX, paclitaxel]
- cell viability, PTX versus LHRH-conjugated PTX [1]: no significant differences in cell viability
- tumor volume, 21-day group ([2]; 10 mg/kg per week IV): 86.83 mm^3
- final tumor sizes, day 14 group ([2]; two IV injections (one per week) of 10 mg/kg, mean volume before treatment 67 mm^3): ~49.1 mm^3
- xenograft tumor size, 28-day group ([2]; 10 mg/kg per week IV): 299.2 mm^3

Compound: LHRH-PTX
- disruption of actin filaments, vinculin structures and cell membranes [3]: more evident
- cell viability, PTX versus LHRH-conjugated PTX [1]: no significant differences in cell viability
- qualitative toxicity (mortality, body weight, clinical signs) [4]: No clinical signs, differences in mortality, or changes in body weight
- qualitative toxicity (mortality, body weight, clinical signs) ([4]; listed as [D-Lys6]LHRH-conjugated paclitaxel): without any evidence of toxicity
- histopathology of liver, lung and kidneys (H&E) ([4]; listed as [D-Lys6]LHRH-conjugated PTX): no significant histological or significant pathological changes; also recorded: no evidence of liver cell hyaline degeneration and necrosis, and no pulmonary edema or hyperplasia observed in the lungs
- percentage cell growth inhibition ([5]; 15 μM, 25 μM, and 30 μM, 72 h): effective at inhibiting the growth of MDA MB 231 cells
- cytotoxicity on coincubation with LHRH ([5]; coincubation of LHRH, 72 h): decreased the cytoxicity
- cell viability (percentage alamar blue reduction) compared with unconjugated drug ([5]; without siRNA, 18, 24, 48 and 72 h): significantly reduced cell viability than the unconjugated drugs
- adhesion force relative to unconjugated PTX, early stage tumor [6]: nearly three times
- adhesion force relative to unconjugated PTX, late stage tumor [6]: about 2 times
- adhesion force relative to unconjugated PTX, mid stage tumor [6]: more than three times
- tumor outcome, mid- and late-stage tumors (21 and 28 days) ([2]; 10 mg/kg IV): significant shrinkage
- decrease in xenograft volume compared to unconjugated PTX, 21-day group [2, 7]: 91%
- percentage reduction in xenograft tumor volume compared to unconjugated PTX, 28-day group [2, 7]: 90.2%
- structural changes in tumor cells/tissue (TEM) ([2]; 21-day and 28-day treatment groups): greater structural changes
- tumor volume, 21-day group ([2]; 10 mg/kg per week IV): 7.76 mm^3
- necrosis in tumor tissue (H&E) ([2]; compared with unconjugated PTX): higher levels of necrosis in the tumors
- tumor outcome, early stage (day 14 group) ([2]; two IV injections (one per week) of 10 mg/kg, listed as LHRH-conjugated paclitaxel): elimination of early stage breast tumors
- tumor outcome, early stage (day 14 group) ([2]; two IV injections (one per week) of 10 mg/kg, listed as [D-Lys6]LHRH-conjugated PTX): eliminated
- tumor outcome, early stage (day 14 group) ([2]; two IV injections (one per week) of 10 mg/kg, listed as [D-Lys6]LHRH-conjugated paclitaxel): eliminated the tumors
- xenograft tumor size, 28-day group ([2]; 10 mg/kg per week IV): 29.4 mm^3
